This note sets out measurements from patent US9073940B2, “Tricyclic pyrazol amine derivatives” (MERCK SERONO SA, priority 2009, dated 2015).

The experiment has as its system 4 PI3K isoforms (Human recombinant GST-PI3K). Kind of experiment: PI3K scintillation proximity assay, best IC50 obtained with the four isoforms (alpha, beta, delta, gamma). The format is biochemical. The settings on record: best IC50 obtained with the four isoforms of PI3K; read-out: Best potency measured on the 4 PI3K isoforms. Background: In a scintillation proximity assay essentially only radioactivity close to the scintillant gives light.
As to `CN1CCC(N2CCC[C@H](n3nc(C(=O)N4CCOCC4)c4c3-c3ccccc3S(=O)(=O)C4)C2)CC1` (stereo in doubt) [Example 451, 1-[1′-methyl-1,4′-bipiperidin-3-yl]-3-(morpholin-4-ylcarbonyl)-1,4-dihydrothiochromeno[4,3-c]pyrazole 5,5-dioxide], the IC50 turned out to be 28 nM.
Regarding `O=C(c1cccc(-n2nc(C(=O)N3CCOCC3)c3c2-c2ccccc2S(=O)(=O)C3)c1)N1CCS(=O)(=O)CC1` [Example 146, 1-{3-[(1,1-Dioxidothiomorpholin-4-yl)carbonyl]phenyl}-3-(morpholin-4-ylcarbonyl)-1,4-dihydrothiochromeno[4,3-c]pyrazole 5,5-dioxide], the IC50 is 319 nM.
`NCCN1CCC[C@H](n2nc(C(=O)N3CCOCC3)c3c2-c2ccccc2S(=O)(=O)C3)C1` (single isomer, unassigned) [Example 452, 2-{3-[3-(morpholin-4-ylcarbonyl)-5,5-dioxidothiochromeno[4,3-c]pyrazol-1(4H)-yl]piperidin-1-yl}ethanamine]: the IC50 came out at 73 nM.
As for `O=C(c1nn(-c2cccc(CN3CCS(=O)(=O)CC3)c2)c2c1CS(=O)(=O)c1ccccc1-2)N1CCOCC1` [Example 247, 1-{3-[(1,1-Dioxidothiomorpholin-4-yl)methyl]phenyl}-3-(morpholin-4-ylcarbonyl)-1,4-dihydrothiochromeno[4,3-c]pyrazole 5,5-dioxide], the IC50 stood at 639 nM.
Regarding `COCCN1CCC[C@H](n2nc(C(=O)N3CCOCC3)c3c2-c2ccc(OC)cc2S(=O)(=O)C3)C1` (single isomer, unassigned) [Example 394, 7-methoxy-1-[1-(2-methoxyethyl)piperidin-3-yl]-3-(morpholin-4-ylcarbonyl)-1,4-dihydrothiochromeno[4,3-c]pyrazole 5,5-dioxide], the IC50 was determined as 93 nM.
The value for `O=C(c1nn(C2CCOCC2)c2c1CS(=O)(=O)c1c(F)cccc1-2)N1CCOCC1` [Example 249, 6-Fluoro-3-(morpholin-4-ylcarbonyl)-1-(tetrahydro-2H-pyran-4-yl)-1,4-dihydrothiochromeno[4,3-c]pyrazole 5,5-dioxide] was 1030 nM.
On to `COc1ccc(-n2nc(C(=O)N3CCOCC3)c3c2-c2ccccc2S(=O)(=O)C3)cc1` [Example 10, 1-(4-methoxyphenyl)-3-(morpholin-4-ylcarbonyl)-1,4-dihydrothiochromeno[4,3-c]pyrazole 5,5-dioxide], for which the IC50 amounted to 749 nM.
Regarding `COc1ccc(-n2nc(C(=O)N3CCOCC3)c3c2-c2ccccc2S(=O)(=O)C3)cn1` [Example 131, 1-(6-Methoxypyridin-3-yl)-3-(morpholin-4-ylcarbonyl)-1,4-dihydrothiochromeno[4,3-c]pyrazole 5,5-dioxide], the IC50 is 2200 nM.
Turning to `O=C(c1nn(-c2ccc(F)cc2)c2c1CS(=O)(=O)c1ccccc1-2)N1CCOCC1` [Example 28, 1-(4-fluorophenyl)-3-(morpholin-4-ylcarbonyl)-1,4-dihydrothiochromeno[4,3-c]pyrazole 5,5-dioxide], the IC50 came out at 373 nM.
Take `O=C(c1nn(C2CCCN(CCn3ccnc3)C2)c2c1CS(=O)(=O)c1ccccc1-2)N1CCOCC1` (stereo not shown) [Example 297, 1-{1-[2-(1H-Imidazol-1-yl)ethyl]piperidin-3-yl}-3-(morpholin-4-ylcarbonyl)-1,4-dihydrothiochromeno[4,3-c]pyrazole 5,5-dioxide]: the IC50 is 52 nM.
As for `COCCCn1nc(C(=O)N2CCOCC2)c2c1-c1ccccc1S(=O)(=O)C2` [Example 44, 1-(3-methoxypropyl)-3-(morpholin-4-ylcarbonyl)-1,4-dihydrothiochromeno[4,3-c]pyrazole 5,5-dioxide], the figure is 907 nM; as for `Cn1cc(-c2cccc(-n3nc(C(=O)N4CCOCC4)c4c3-c3ccccc3S(=O)(=O)C4)c2)cn1` [Example 185, 1-[3-(1-Methyl-1H-pyrazol-4-yl)phenyl]-3-(morpholin-4-ylcarbonyl)-1,4-dihydrothiochromeno[4,3-c]pyrazole 5,5-dioxide], 184 nM.
For the molecule `COCCCN1CCC(n2nc(C(=O)N3CCOCC3)c3c2-c2ccccc2S(=O)(=O)C3)C1` (stereo not shown) [Example 256, 1-[1-(3-Methoxypropyl)pyrrolidin-3-yl]-3-(morpholin-4-ylcarbonyl)-1,4-dihydrothiochromeno[4,3-c]pyrazole 5,5-dioxide], the IC50 stood at 923 nM.
As for `COc1ccc(C(=O)Cn2nc(C(=O)N3CCOCC3)c3c2-c2ccccc2S(=O)(=O)C3)cc1` [Example 317], the IC50 came to 14500 nM.
As for `O=C(c1nn(CCCO)c2c1CS(=O)(=O)c1ccccc1-2)N1CCOCC1` [Example 54, 3-[3-(morpholin-4-ylcarbonyl)-5,5-dioxidothiochromeno[4,3-c]pyrazol-1(4H)-yl]propan-1-ol], the IC50 was 2250 nM.
In the case of `COCCNCCN1CCC[C@H](n2nc(C(=O)N3CCOCC3)c3c2-c2ccccc2S(=O)(=O)C3)C1` (stereo in doubt) [Example 445, 2-methoxy-N-(2-{3-[3-(morpholin-4-ylcarbonyl)-5,5-dioxidothiochromeno[4,3-c]pyrazol-1(4H)-yl]piperidin-1-yl}ethyl)ethanamine], the IC50 was 34 nM.
Turning to `O=C(c1nn(C2CCCN(CCCn3cccc3)C2)c2c1CS(=O)(=O)c1ccccc1-2)N1CCOCC1` (stereo not shown) [Example 296, 3-(Morpholin-4-ylcarbonyl)-1-{1-[3-(1H-pyrrol-1-yl)propyl]piperidin-3-yl}-1,4-dihydrothiochromeno[4,3-c]pyrazole 5,5-dioxide], the IC50 is 90 nM.
In the case of `Cc1nnc(-c2cccc(-n3nc(C(=O)N4CCOCC4)c4c3-c3ccccc3S(=O)(=O)C4)c2)s1` [Example 183, 1-[3-(5-Methyl-1,3,4-thiadiazol-2-yl)phenyl]-3-(morpholin-4-ylcarbonyl)-1,4-dihydrothiochromeno[4,3-c]pyrazole 5,5-dioxide], the IC50 amounted to 661 nM.
The value for `O=C(c1nn([C@H]2CCCN(CCC3CCOCC3)C2)c2c1CS(=O)(=O)c1ncccc1-2)N1CCOCC1` (single isomer, unassigned) [Example 422, 3-(morpholin-4-ylcarbonyl)-1-{1-[2-(tetrahydro-2H-pyran-4-yl)ethyl]piperidin-3-yl}-1,4-dihydropyrazolo[3′,4′:4,5]thiopyrano[2,3-b]pyridine 5,5-dioxide] was 16 nM.
As for `O=C(c1ccc(-n2nc(C(=O)N3CCOCC3)c3c2-c2ccccc2S(=O)(=O)C3)cc1)N1CCCCC1` [Example 151, 3-(Morpholin-4-ylcarbonyl)-1-[4-(piperidin-1-ylcarbonyl)phenyl]-1,4-dihydrothiochromeno[4,3-c]pyrazole 5,5-dioxide], the figure is 238 nM.
Regarding `O=C(c1cccc(-n2nc(C(=O)N3CCOCC3)c3c2-c2ccccc2S(=O)(=O)C3)c1)N1CCCC(O)C1` (stereo not shown) [Example 144, 1-{3-[3-(Morpholin-4-ylcarbonyl)-5,5-dioxidothiochromeno[4,3-c]pyrazol-1 (4H)-yl]benzoyl}piperidin-3-ol], the IC50 came to 348 nM.
The value for `Cc1ccccc1-c1cccc(-n2nc(C(=O)N3CCOCC3)c3c2-c2ccccc2S(=O)(=O)C3)c1` [Example 160, 1-(2′-Methylbiphenyl-3-yl)-3-(morpholin-4-ylcarbonyl)-1,4-dihydrothiochromeno[4,3-c]pyrazole 5,5-dioxide] was 1080 nM; that for `COCCNc1ccc2c(c1)S(=O)(=O)Cc1c(C(=O)N3CCOCC3)nn(-c3ccccc3)c1-2` [Example 327] was 6610 nM; that for `O=C(c1nn(-c2cccc(-c3ccoc3)c2)c2c1CS(=O)(=O)c1ccccc1-2)N1CCOCC1` [Example 197, 1-[3-(3-Furyl)phenyl]-3-(morpholin-4-ylcarbonyl)-1,4-dihydrothiochromeno[4,3-c]pyrazole 5,5-dioxide] was 826 nM.
Turning to `O=C(c1nn(-c2ccccn2)c2c1CS(=O)(=O)c1ccccc1-2)N1CCOCC1` [Example 11, 3-(morpholin-4-ylcarbonyl)-1-pyridin-2-yl-1,4-dihydrothiochromeno[4,3-c]pyrazole 5,5-dioxide], the IC50 came to 1600 nM.
On to `O=C(c1nn([C@@H]2CCCN(CCN3CCOCC3)C2)c2c1CS(=O)(=O)c1ccccc1-2)N1CCOCC1` (single isomer, unassigned) [Example 348, 3-(morpholin-4-ylcarbonyl)-1-[1-(2-morpholin-4-ylethyl)piperidin-3-yl]-1,4-dihydrothiochromeno[4,3-c]pyrazole 5,5-dioxide], for which the IC50 stood at 1280 nM.
For `Cn1nc(C(=O)N2CCOCC2)c2c1-c1cc([N+](=O)[O-])ccc1S(=O)(=O)C2` [Example 35, 1-methyl-3-(morpholin-4-ylcarbonyl)-8-nitro-1,4-dihydrothiochromeno[4,3-c]pyrazole 5,5-dioxide], the IC50 amounted to 2770 nM.
As to `CN(C)c1cccc(-n2nc(C(=O)N3CCOCC3)c3c2-c2ccccc2S(=O)(=O)C3)c1` [Example 177, N,N-Dimethyl-3-[3-(morpholin-4-ylcarbonyl)-5,5-dioxidothiochromeno[4,3-c]pyrazol-1 (4H)-yl]aniline], the IC50 is 4720 nM.
With `O=C(c1nn(-c2ccc(CN3CC(F)C3)cc2)c2c1CS(=O)(=O)c1ccccc1-2)N1CCOCC1` [Example 430, 1-{4-[(3-Fluoroazetidin-1-yl)methyl]phenyl}-3-(morpholin-4-ylcarbonyl)-1,4-dihydrothiochromeno[4,3-c]pyrazole 5,5-dioxide], the IC50 worked out at 229 nM.
Turning to `CC1CN(CCN2CCC[C@H](n3nc(C(=O)N4CCOCC4)c4c3-c3ccccc3S(=O)(=O)C4)C2)CCO1` (single isomer, unassigned) [Example 385, 1-{1-[2-(2-methylmorpholin-4-yl)ethyl]piperidin-3-yl}-3-(morpholin-4-ylcarbonyl)-1,4-dihydrothiochromeno[4,3-c]pyrazole 5,5-dioxide], the IC50 came out at 29 nM.
Regarding `CCc1noc(Cn2nc(C(=O)N3CCOCC3)c3c2-c2ccccc2S(=O)(=O)C3)n1` [Example 230, 1-[(3-Ethyl-1,2,4-oxadiazol-5-yl)methyl]-3-(morpholin-4-ylcarbonyl)-1,4-dihydrothiochromeno[4,3-c]pyrazole 5,5-dioxide], the IC50 stood at 1920 nM.
